Among the data in ChEMBL document CHEMBL1144199, “Design, synthesis, and biological evaluation of new mitonafide derivatives as potential antitumor drugs” (Bioorg Med Chem, 2008) are Kapp and IC50 values, retold here.

In one assay the test system is DNA. Kind of assay: Displacement of ethidium bromide from calf thymus DNA assessed as ratio of concentration of ethidium in ethidium DNA complex to drug concentration by fluorometric assay. The assay is classed as nucleic-acid assay. Conditions: Bos taurus.
Another assay deals with HT-29. Kind of assay: Cytotoxicity against human HT-29 cells after 144 hrs. The assay is classed as functional, cell-based. Conditions: HT-29, 144 h.

By IC50 is commonly meant the concentration that inhibits the measured activity by half.

As to `CN(C)CCN1C(=O)c2cccc3cc([N+](=O)[O-])cc(c23)C1=O` [MITONAFIDE], the Kapp in the assay with DNA was 3.4 ×10⁶ /M. Moreover, it took 220 nM to reach half-maximal inhibition in the assay on HT-29 (IC50).

With `CN(C)CCCNc1ccc2c3c(cccc13)C(=O)N(CCCN(C)CCCN1C(=O)c3cccc4c(NCCCN(C)C)ccc(c34)C1=O)C2=O`, the Kapp with DNA came to 1.1 ×10⁸ /M. Moreover, half-maximal inhibition in the assay with HT-29 (IC50) required 100 nM.

As for `CN(C)CCCNc1c(N)cc2c3c(cccc13)C(=O)N(CCCN(C)C)C2=O`, the Kapp with DNA was found to be 3.9 ×10⁷ /M. In the assay on HT-29, this molecule came in with an IC50 of 16800 nM.

As for `CN(C)CCNC(=O)c1cccc2c(=O)c3ccccc3[nH]c12`, half-maximal inhibition with HT-29 (IC50) required 1700 nM.

As to `CN(C)CCN1C(=O)c2cccc3c(NCCNCCO)ccc(c23)C1=O`, in the assay with DNA, the Kapp is 2.4 ×10⁷ /M. For the same molecule, half-maximal inhibition in the assay on HT-29 (IC50) required 770 nM.

On to `CN(C)CCNc1ccc2c3c(cccc13)C(=O)N(CCCN(C)CCCN1C(=O)c3cccc4c(NCCN(C)C)ccc(c34)C1=O)C2=O`, for which the Kapp in the assay on DNA worked out at 2.3 ×10⁸ /M. In the assay on HT-29, this molecule came in with an IC50 of 60 nM.

With `CN(C)CCNc1c([N+](=O)[O-])cc2c3c(cccc13)C(=O)N(CCN(C)C)C2=O`, in the assay on DNA, the Kapp turned out to be 7.7 ×10⁷ /M. The molecule also yielded an IC50 in the assay with HT-29 of 120 nM.

For `CN(C)CCNC(=O)c1ccc(NCCN(C)C)c2c(=O)c3ccccc3[nH]c12`, in the assay with HT-29, half-maximal inhibition (IC50) required 44 nM.

For the molecule `CCN(CC)CCCNc1ccc2c3c(cccc13)C(=O)N(CCN(C)C)C2=O`, the Kapp with DNA amounted to 1.9 ×10⁷ /M. The molecule also had an IC50 in the assay with HT-29 of 890 nM.

For the molecule `CN(C)CCCNc1c([N+](=O)[O-])cc2c3c(cccc13)C(=O)N(CCCN(C)C)C2=O`, the Kapp in the assay on DNA was 7 ×10⁷ /M. For the same molecule, 140 nM corresponded to half-maximal inhibition in the assay on HT-29 (IC50).

`CN(C)CCNc1ccc2c3c(cccc13)C(=O)N(CCN(C)C)C2=O`: in the assay with DNA, the Kapp is 2.3 ×10⁷ /M. In the assay with HT-29, this molecule displayed an IC50 of 160 nM.

For the molecule `CN(C)CCCN1C(=O)c2cccc3c(NCCN(C)C)ccc(c23)C1=O`, the Kapp in the assay with DNA came to 1.5 ×10⁷ /M. In the assay on HT-29, this molecule gave an IC50 of 1700 nM.

Regarding `NCCNc1c([N+](=O)[O-])cc2c3c(cccc13)C(=O)N(CCN)C2=O`, the Kapp in the assay on DNA worked out at 5.3 ×10⁷ /M. In the assay with HT-29, this molecule yielded an IC50 of 860 nM.

With `CN(C)CCCNc1ccc2c3c(cccc13)C(=O)N(CCN(C)C)C2=O`, the Kapp in the assay on DNA is 1.9 ×10⁷ /M. 930 nM corresponded to half-maximal inhibition with HT-29 (IC50).

With `CCN(CC)CCNc1ccc2c3c(cccc13)C(=O)N(CCN(C)C)C2=O`, in the assay with DNA, the Kapp came to 2.3 ×10⁷ /M. In the assay with HT-29, inhibition was half-maximal at 2100 nM (IC50).

Take `CN(C)CCCNc1ccc2c3c(cccc13)C(=O)N(CCCN(C)C)C2=O`: the Kapp with DNA amounted to 1.3 ×10⁷ /M. Also, the IC50 with HT-29 turned out to be 1400 nM.

Take `CN(C)CCNc1c(N)cc2c3c(cccc13)C(=O)N(CCN(C)C)C2=O`: in the assay with DNA, the Kapp was 4.5 ×10⁷ /M. In the assay on HT-29, this molecule showed an IC50 of 810 nM.
